Reference: patent publication US10806785B2, “Immunomodulator compounds and methods of use” (Incyte Corporation, priority 2016, dated 2020)

Biological target: PD-1/PD-L1 (Homo sapiens (Human), UniProt Q9NZQ7)
Experiment: PD-1/PD-L1 binding assay (HTRF)
In short: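 Fc-tagged human PD-1 (25-167) and His-tagged PD-L1 (19-238), listed as […] and 10 nM final, preincubated 40 min with inhibitors in PBS pH 7.4, 0.05% Tween-20, 0.1% BSA, 1% DMSO, 25 °C. Eu anti-IgG/APC anti-His added, 60 min, 665/620 nm HTRF ratio; IC50 fitted from percent control activity.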

Chain of PD-1/PD-L1 (Q9NZQ7 19-238): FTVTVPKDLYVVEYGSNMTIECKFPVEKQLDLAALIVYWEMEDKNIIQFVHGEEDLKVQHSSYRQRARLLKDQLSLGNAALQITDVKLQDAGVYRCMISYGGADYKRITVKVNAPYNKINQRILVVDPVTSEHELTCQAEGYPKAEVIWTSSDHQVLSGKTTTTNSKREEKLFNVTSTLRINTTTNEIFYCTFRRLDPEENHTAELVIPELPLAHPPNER

Row | Compound | IC50
1 | CC(=O)N1CCC(N2CCc3c(nc(C(=O)Nc4cccc(-c5cccc(NC(=O)c6nc7c(n6C)CCN(C)C7)c5Cl)c4C)n3C)C2)CC1 [Example 34, 5-(1-acetylpiperidin-4-yl)-N-(2′-chloro-3′-(1,5-dimethyl-4,5,6,7-tetrahydro-1H-imidazo[4,5-c]pyridine-2-carboxamido)-2-methylbiphenyl-3-yl)-1-methyl-4,5,6,7-tetrahydro-1H-imidazo[4,5-c]pyridine-2-carboxamide] | ≤ 10 nM
2 | Cc1c(NC(=O)c2nc3c(n2C)CCN(C2CCC(C)(C(=O)O)CC2)C3)cccc1-c1cccc(NC(=O)c2nc3c(n2C)CCN(C)C3)c1Cl (centres unmarked) [Example 35, 4-(2-(2′-chloro-3′-(1,5-dimethyl-4,5,6,7-tetrahydro-1H-imidazo[4,5-c]pyridine-2-carboxamido)-2-methylbiphenyl-3-ylcarbamoyl)-1-methyl-6,7-dihydro-1H-imidazo[4,5-c]pyridin-5(4H)-yl)-1-methylcyclohexanecarboxylic acid] | ≤ 10 nM
3 | Cc1c(NC(=O)c2nc3c(n2C)CCN(CCCNS(C)(=O)=O)C3)cccc1-c1cccc(NC(=O)c2nc3c(n2C)CCN(C)C3)c1Cl [Example 36, N-(2-chloro-2′-methyl-3′-(1-methyl-5-(3-(methylsulfonamido)propyl)-4,5,6,7-tetrahydro-1H-imidazo[4,5-c]pyridine-2-carboxamido)biphenyl-3-yl)-1,5-dimethyl-4,5,6,7-tetrahydro-1H-imidazo[4,5-c]pyridine-2-carboxamide] | ≤ 10 nM
4 | CN1CCc2c(nc(C(=O)Nc3cccc(-c4cccc(NC(=O)c5nc6c(n5C)CCN(CCO)C6)c4Cl)c3C#N)n2C)C1 [Example 38, N-(2-chloro-2′-cyano-3′-(1,5-dimethyl-4,5,6,7-tetrahydro-1H-imidazo[4,5-c]pyridine-2-carboxamido)biphenyl-3-yl)-5-(2-hydroxyethyl)-1-methyl-4,5,6,7-tetrahydro-1H-imidazo[4,5-c]pyridine-2-carboxamide] | ≤ 10 nM
5 | C[C@H](O)CN1CCc2c(nc(C(=O)Nc3cccc(-c4cccc(NC(=O)c5nc6c(n5C)CCN(C)C6)c4C#N)c3Cl)n2C)C1 [Example 39, (S)—N-(2-chloro-2′-cyano-3′-(1,5-dimethyl-4,5,6,7-tetrahydro-1H-imidazo[4,5-c]pyridine-2-carboxamido)biphenyl-3-yl)-5-(2-hydroxypropyl)-1-methyl-4,5,6,7-tetrahydro-1H-imidazo[4,5-c]pyridine-2-carboxamide] | ≤ 10 nM
6 | C[C@@H](O)CN1CCc2c(nc(C(=O)Nc3cccc(-c4cccc(NC(=O)c5nc6c(n5C)CCN(C)C6)c4C#N)c3Cl)n2C)C1 [Example 40, (R)—N-(2-chloro-2′-cyano-3′-(1,5-dimethyl-4,5,6,7-tetrahydro-1H-imidazo[4,5-c]pyridine-2-carboxamido)biphenyl-3-yl)-5-(2-hydroxypropyl)-1-methyl-4,5,6,7-tetrahydro-1H-imidazo[4,5-c]pyridine-2-carboxamide] | ≤ 10 nM
7 | Cc1c(NC(=O)c2nc3c(n2C)CCN(C[C@H](C)O)C3)cccc1-c1cccc(NC(=O)c2nc3c(n2C)CCNC3)c1Cl [Example 41, (S)—N-(2′-chloro-2-methyl-3′-(1-methyl-4,5,6,7-tetrahydro-1H-imidazo[4,5-c]pyridine-2-carboxamido)-[1,1′-biphenyl]-3-yl)-5-(2-hydroxypropyl)-1-methyl-4,5,6,7-tetrahydro-1H-imidazo[4,5-c]pyridine-2-carboxamide] | ≤ 10 nM
8 | Cc1c(NC(=O)c2nc3c(n2C)CCN(C[C@H](C)O)C3)cccc1-c1cccc(NC(=O)c2nc3c(n2C)CCN(CCO)C3)c1Cl [Example 42, (S)—N-(2′-chloro-3′-(5-(2-hydroxyethyl)-1-methyl-4,5,6,7-tetrahydro-1H-imidazo[4,5-c]pyridine-2-carboxamido)-2-methylbiphenyl-3-yl)-5-(2-hydroxypropyl)-1-methyl-4,5,6,7-tetrahydro-1H-imidazo[4,5-c]pyridine-2-carboxamide] | ≤ 10 nM
9 | Cc1c(NC(=O)c2nc3c(n2C)CCN(C[C@H](C)O)C3)cccc1-c1cccc(NC(=O)c2nc3c(n2C)CCN(C2CCN(S(C)(=O)=O)CC2)C3)c1Cl [Example 43, (S)—N-(2′-chloro-2-methyl-3′-(1-methyl-5-(1-(methylsulfonyl)piperidin-4-yl)-4,5,6,7-tetrahydro-1H-imidazo[4,5-c]pyridine-2-carboxamido)biphenyl-3-yl)-5-(2-hydroxypropyl)-1-methyl-4,5,6,7-tetrahydro-1H-imidazo[4,5-c]pyridine-2-carboxamide] | ≤ 10 nM
10 | Cc1c(NC(=O)c2nc3c(n2C)CCN(C[C@H](C)O)C3)cccc1-c1cccc(NC(=O)c2nc3c(n2C)CCN(C2CCC2)C3)c1Cl [Example 44, (S)—N-(2-chloro-3′-(5-(2-hydroxypropyl)-1-methyl-4,5,6,7-tetrahydro-1H-imidazo[4,5-c]pyridine-2-carboxamido)-2′-methylbiphenyl-3-yl)-5-cyclobutyl-1-methyl-4,5,6,7-tetrahydro-1H-imidazo[4,5-c]pyridine-2-carboxamide] | ≤ 10 nM
11 | Cc1c(NC(=O)c2nc3c(n2C)CCN(C[C@H](C)O)C3)cccc1-c1cccc(NC(=O)c2nc3c(n2C)CCN(C(C)C)C3)c1Cl [Example 45, (S)—N-(2-chloro-3′-(5-(2-hydroxypropyl)-1-methyl-4,5,6,7-tetrahydro-1H-imidazo[4,5-c]pyridine-2-carboxamido)-2′-methylbiphenyl-3-yl)-5-isopropyl-1-methyl-4,5,6,7-tetrahydro-1H-imidazo[4,5-c]pyridine-2-carboxamide] | ≤ 10 nM
12 | Cc1c(NC(=O)c2nc3c(n2C)CCN(C[C@H](C)O)C3)cccc1-c1cccc(NC(=O)c2nc3c(n2C)CCN(CC2CC2)C3)c1Cl [Example 46, (S)—N-(2-chloro-3′-(5-(2-hydroxypropyl)-1-methyl-4,5,6,7-tetrahydro-1H-imidazo[4,5-c]pyridine-2-carboxamido)-2′-methylbiphenyl-3-yl)-5-(cyclopropylmethyl)-1-methyl-4,5,6,7-tetrahydro-1H-imidazo[4,5-c]pyridine-2-carboxamide] | ≤ 10 nM
13 | Cc1c(NC(=O)c2nc3c(n2C)CCN(C[C@H](C)O)C3)cccc1-c1cccc(NC(=O)c2nc3c(n2C)CCN(C2CCOCC2)C3)c1Cl [Example 47, (S)—N-(2′-chloro-2-methyl-3′-(1-methyl-5-(tetrahydro-2H-pyran-4-yl)-4,5,6,7-tetrahydro-1H-imidazo[4,5-c]pyridine-2-carboxamido)biphenyl-3-yl)-5-(2-hydroxypropyl)-1-methyl-4,5,6,7-tetrahydro-1H-imidazo[4,5-c]pyridine-2-carboxamide] | ≤ 10 nM
14 | Cc1c(NC(=O)c2cc(CN3CC[C@@H](O)C3)cn(C)c2=O)cccc1-c1cccc(NC(=O)c2nc3c(n2C)CCN(C)C3)c1Cl [Example 48, (R)—N-(2-chloro-3′-(5-((3-hydroxypyrrolidin-1-yl)methyl)-1-methyl-2-oxo-1,2-dihydropyridine-3-carboxamido)-2′-methylbiphenyl-3-yl)-1,5-dimethyl-4,5,6,7-tetrahydro-1H-imidazo[4,5-c]pyridine-2-carboxamide] | ≤ 10 nM
15 | Cc1c(NC(=O)c2cc(CN3CC[C@@H](C(=O)O)C3)cn(C)c2=O)cccc1-c1cccc(NC(=O)c2nc3c(n2C)CCN(C)C3)c1Cl [Example 49, (R)-1-((5-(2′-chloro-3′-(1,5-dimethyl-4,5,6,7-tetrahydro-1H-imidazo[4,5-c]pyridine-2-carboxamido)-2-methylbiphenyl-3-ylcarbamoyl)-1-methyl-6-oxo-1,6-dihydropyridin-3-yl)methyl)pyrrolidine-3-carboxylic acid] | ≤ 10 nM
16 | Cc1c(NC(=O)c2cc(CN3CCCC3)cn(C)c2=O)cccc1-c1cccc(NC(=O)c2nc3c(n2C)CCN(C)C3)c1Cl [Example 50, N-(2-chloro-2′-methyl-3′-(1-methyl-2-oxo-5-(pyrrolidin-1-ylmethyl)-1,2-dihydropyridine-3-carboxamido)biphenyl-3-yl)-1,5-dimethyl-4,5,6,7-tetrahydro-1H-imidazo[4,5-c]pyridine-2-carboxamide] | ≤ 10 nM
17 | Cc1c(NC(=O)c2cc(CN3CC[C@@H](O)C3)cn(C)c2=O)cccc1-c1cccc(NC(=O)c2nc3c(n2C)CCN(C[C@H](C)O)C3)c1Cl [Example 51, N-(2-chloro-3′-(5-(((R)-3-hydroxypyrrolidin-1-yl)methyl)-1-methyl-2-oxo-1,2-dihydropyridine-3-carboxamido)-2′-methylbiphenyl-3-yl)-5-((S)-2-hydroxypropyl)-1-methyl-4,5,6,7-tetrahydro-1H-imidazo[4,5-c]pyridine-2-carboxamide] | ≤ 10 nM
18 | Cc1c(NC(=O)c2cc(CN3CCCC3)cn(C)c2=O)cccc1-c1cccc(NC(=O)c2nc3c(n2C)CCN(C[C@H](C)O)C3)c1Cl [Example 52, (S)—N-(2-chloro-2′-methyl-3′-(1-methyl-2-oxo-5-(pyrrolidin-1-ylmethyl)-1,2-dihydropyridine-3-carboxamido)biphenyl-3-yl)-5-(2-hydroxypropyl)-1-methyl-4,5,6,7-tetrahydro-1H-imidazo[4,5-c]pyridine-2-carboxamide] | ≤ 10 nM
19 | Cc1c(-c2nc3c(s2)CN(C(=O)CN(C)C)C3)cccc1-c1cccc(NC(=O)c2nc3c(n2C)CCN(C)C3)c1Cl [Example 53, N-(2-chloro-3′-(5-(2-(dimethylamino)acetyl)-5,6-dihydro-4H-pyrrolo[3,4-d]thiazol-2-yl)-2′-methylbiphenyl-3-yl)-1,5-dimethyl-4,5,6,7-tetrahydro-1H-imidazo[4,5-c]pyridine-2-carboxamide] | ≤ 10 nM
20 | Cc1c(COc2cc(OCc3cncc(C#N)c3)c(CN3CCCC[C@H]3C(=O)O)cc2Cl)cccc1-c1cccc(NC(=O)c2nc3c(n2C)CCN(C)C3)c1Cl [Example 54, (S)-1-(5-chloro-4-((2′-chloro-3′-(1,5-dimethyl-4,5,6,7-tetrahydro-1H-imidazo[4,5-c]pyridine-2-carboxamido)-2-methyl-[1,1′-biphenyl]-3-yl)methoxy)-2-((5-cyanopyridin-3-yl)methoxy)benzyl)piperidine-2-carboxylic acid] | ≤ 10 nM
